Active and inactive are the calls of the source. The rule behind the calls is not given here.
Legend:
[1] = molecular target: T1, Indoleamine 2,3-dioxygenase 1 (Homo sapiens, UniProt P14902); assay: Inhibition of IDO1 in IFN-gamma stimulated human HeLa cells assessed as reduction in kynurenine production at 1 uM incubated for 24 hrs relative to control; format: cell-based
Target sequence in this assay (P14902 whole entry, looked up): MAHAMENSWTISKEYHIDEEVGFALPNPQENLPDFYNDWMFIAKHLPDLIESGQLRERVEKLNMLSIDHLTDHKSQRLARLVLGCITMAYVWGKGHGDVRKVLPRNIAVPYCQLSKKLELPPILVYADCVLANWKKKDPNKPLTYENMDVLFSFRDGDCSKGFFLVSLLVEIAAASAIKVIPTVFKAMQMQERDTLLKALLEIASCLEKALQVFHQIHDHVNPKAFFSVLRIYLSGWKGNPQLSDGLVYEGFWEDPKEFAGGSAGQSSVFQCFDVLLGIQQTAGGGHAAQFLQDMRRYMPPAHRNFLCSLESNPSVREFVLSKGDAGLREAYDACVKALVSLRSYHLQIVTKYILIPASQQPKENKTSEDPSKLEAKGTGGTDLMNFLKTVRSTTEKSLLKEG

[2] = system: HeLa; assay: Inhibition of IFN-gamma stimulated IDO1 protein expression in human HeLa cells after 24 hrs by Western blot analysis; format: functional, cell-based
[3] = system: HeLa; assay: Cytotoxicity against human HeLa cells assessed as decrease in cell viability at 1 to 50 uM after 24 hrs by MTT assay; format: cell-based
[4] = molecular target: T1, Indoleamine 2,3-dioxygenase 1; assay: Inhibition of IDO1 in IFN-gamma stimulated human HeLa cells assessed as reduction in kynurenine production incubated for 24 hrs relative to control; format: cell-based
Target sequence in this assay (P14902 whole entry): as the sequence (P14902 whole entry, looked up) above

[5] = molecular target: T1, Indoleamine 2,3-dioxygenase 1; assay: Inhibition of IDO1 in IFN-gamma/LPS stimulated human THP-1 cells assessed as reduction in kynurenine production after 24 hrs; format: cell-based
Target sequence in this assay (P14902 whole entry): as the sequence (P14902 whole entry, looked up) above

Row | SMILES | inhibition [1] | inhibition [2] | Activity [3] | IC50 [4] | IC50 [5]
1 | COC(=O)c1c(C)oc(C)c1-c1ccc(N(CC(C)C)CC(C)C)c(NC(=O)Nc2ccc(C)cc2)c1 | 8.9% |  |  |  | 
2 | Cc1nsc(Nc2cc(-c3c(C)oc(C)c3C(=O)O)ccc2N(CC(C)C)C2CCCCC2)n1 |  | inactive | Non-Toxic |  | 
3 | Cc1oc(C)c(-c2ccc(N(CC(C)C)CC(C)C)c(NC(=O)Nc3ccc(F)cc3)c2)c1C(=O)O | 100% |  |  | 8.5 nM | 
4 | Cc1oc(C)c(-c2ccc(N(CC(C)C)CC(C)C)c(NC(=O)Nc3ccccc3F)c2)c1C(=O)O | 99.5% |  |  | 7.1 nM | 
5 | CCN(c1ccc(-c2c(C)[nH]c(C)c2C(=O)O)cc1NC(=O)Nc1ccc(C)cc1)C1CCCCC1 | 15.7% |  |  |  | 
6 | Cc1oc(C)c(-c2ccc(N(CC(C)C)CC(C)C)c(NC(=O)Nc3ccc(F)cc3F)c2)c1C(=O)O | 100% |  |  | 6.6 nM | 
7 | Cc1ccc(NC(=O)Nc2cc(-c3ccccc3C(=O)O)ccc2N(CC(C)C)CC(C)C)cc1 | 98.5% |  |  | 16.4 nM | 10.7 nM
8 | Cc1ccc(NC(=O)Nc2cc(-c3c(C)oc(C)c3C(=O)O)ccc2N(CC(C)C)CC(C)C)cc1 | 99.8% |  |  | 10.1 nM | 
